# Earlier results, collected in US20070166816A1, “Assay device that analyzes the absorption, metabolism, permeability and/or toxicity of a candidate compound” (Surface Logix, Inc., priority 2002, published 2007).
# Experiments:
# Caco-2 cells = conditions: previously characterized in Caco-2 assays; qualitative grade
# [1] = previously characterized in humans; qualitative grade
Structure (SMILES),Absorbance in vitro (Caco-2 cells),Absorbance in vivo [1]
O=c1[nH]cc(F)c(=O)[nH]1 [5-Fluorouracil],Very High,Low
NS(=O)(=O)c1cc2c(cc1Cl)N=CNS2(=O)=O [Chlorothiazide],Low,
NS(=O)(=O)c1cc(C(=O)O)c(NCc2ccco2)cc1Cl [Furosemide],,Moderate
"OC[C@@H](O)[C@@H](O)[C@H](O)[C@H](O)CO [Mannitol-reference, Mannitol]",Low,Very low
COc1ccc2cc([C@H](C)C(=O)O)ccc2c1 [Naproxein],High,High
"CC(C)NCC(O)COc1cccc2ccccc12 (stereo not drawn) [Propranolol--reference, Propranolol]",Moderate,
